# Measurements: PubChem BioAssay AID1963842 (Molecular Pharmacology Branch, DTP, NCI, 2024)
# pIC50: −log10 of the molar value.
# Test system: 677734-321-R-J1-PDC complex spheroid viability
# Experiment: Anticancer human tumor 677734-321-R-J1-PDC patient-derived soft tissue sarcoma cell line growth inhibition [POLQ]
# Conditions: for pIC50: curve of first compound; for viability, T/C: stronger effect = lower value
# Outline: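 Complex spheroid viability model combining PDC tumour cells with endothelial (HUVEC) and MSC stromal cells. Novobiocin, ART-558 or RP6685 were tested singly and in combination with standard and investigational anticancer drugs. Each was titrated in half-log steps from near clinical Cmax, or from 10 microM where Cmax was unknown.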
# [1] = second compound 0.0316 µM, first compound 0.00316 µM
# [2] = second compound 0.0316 µM, first compound 0.01 µM
# [3] = second compound 0.0316 µM, first compound 0.0316 µM
# [4] = second compound 0.0316 µM, first compound 0.1 µM
# [5] = second compound 0.1 µM, first compound 0.00316 µM
# [6] = second compound 0.1 µM, first compound 0.01 µM
# [7] = second compound 0.1 µM, first compound 0.0316 µM
# [8] = second compound 0.1 µM, first compound 0.1 µM
# [9] = second compound 0.316 µM, first compound 0.00316 µM
# [10] = second compound 0.316 µM, first compound 0.01 µM
# [11] = second compound 0.316 µM, first compound 0.0316 µM
# [12] = second compound 0.316 µM, first compound 0.1 µM
# [13] = second compound 1 µM, first compound 0.00316 µM
# [14] = second compound 1 µM, first compound 0.01 µM
# [15] = second compound 1 µM, first compound 0.0316 µM
# [16] = second compound 1 µM, first compound 0.1 µM
# [17] = second compound 3.16 µM, first compound 0.00316 µM
# [18] = second compound 3.16 µM, first compound 0.01 µM
# [19] = second compound 3.16 µM, first compound 0.0316 µM
# [20] = second compound 3.16 µM, first compound 0.1 µM
# [21] = second compound 10 µM, first compound 0.00316 µM
# [22] = second compound 10 µM, first compound 0.01 µM
# [23] = second compound 10 µM, first compound 0.0316 µM
# [24] = second compound 10 µM, first compound 0.1 µM
# [25] = second compound 0.0316 µM, first compound 0.316 µM
# [26] = second compound 0.0316 µM, first compound 1 µM
# [27] = second compound 0.1 µM, first compound 0.316 µM
# [28] = second compound 0.1 µM, first compound 1 µM
# [29] = second compound 0.316 µM, first compound 0.316 µM
# [30] = second compound 0.316 µM, first compound 1 µM
# [31] = second compound 1 µM, first compound 0.316 µM
# [32] = second compound 1 µM, first compound 1 µM
# [33] = second compound 3.16 µM, first compound 0.316 µM
# [34] = second compound 3.16 µM, first compound 1 µM
# [35] = second compound 10 µM, first compound 0.316 µM
# [36] = second compound 10 µM, first compound 1 µM
# [37] = second compound 0.0316 µM, first compound 3.16 µM
# [38] = second compound 0.0316 µM, first compound 10 µM
# [39] = second compound 0.1 µM, first compound 3.16 µM
# [40] = second compound 0.1 µM, first compound 10 µM
# [41] = second compound 0.316 µM, first compound 3.16 µM
# [42] = second compound 0.316 µM, first compound 10 µM
# [43] = second compound 1 µM, first compound 3.16 µM
# [44] = second compound 1 µM, first compound 10 µM
# [45] = second compound 3.16 µM, first compound 3.16 µM
# [46] = second compound 3.16 µM, first compound 10 µM
# [47] = second compound 10 µM, first compound 3.16 µM
# [48] = second compound 10 µM, first compound 10 µM
# 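Further: spheroids exposed to compounds for one week.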
# 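Wherever viability, T/C is given: 100% = vehicle DMSO treated spheroids.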
smiles,measurement,setting,value
CC[C@@]1(O)C(=O)OCc2c1cc1n(c2=O)Cc2cc3c(CN(C)C)c(O)ccc3nc2-1 + Cc1cccc(N(C)C(=O)C2C(O)CCN2c2nc(C)cc(C(F)(F)F)c2C#N)c1,pIC50,second compound 0.0316 µM,7.58
same,pIC50,second compound 0.1 µM,7.58
same,pIC50,second compound 0.316 µM,7.64
same,pIC50,second compound 1 µM,7.56
same,pIC50,second compound 3.16 µM,7.61
same,pIC50,second compound 10 µM,7.60
same,"viability, T/C","second compound 0.0316 µM, first compound 0.000316 µM",104%
same,"viability, T/C","second compound 0.0316 µM, first compound 0.001 µM",105%
same,"viability, T/C",[1],102%
same,"viability, T/C",[2],102%
same,"viability, T/C",[3],39.4%
same,"viability, T/C",[4],15.8%
same,"viability, T/C","second compound 0.1 µM, first compound 0.000316 µM",103%
same,"viability, T/C","second compound 0.1 µM, first compound 0.001 µM",113%
same,"viability, T/C",[5],108%
same,"viability, T/C",[6],99.9%
same,"viability, T/C",[7],40.2%
same,"viability, T/C",[8],21.1%
same,"viability, T/C","second compound 0.316 µM, first compound 0.000316 µM",112%
same,"viability, T/C","second compound 0.316 µM, first compound 0.001 µM",112%
same,"viability, T/C",[9],100%
same,"viability, T/C",[10],91.3%
same,"viability, T/C",[11],34.1%
same,"viability, T/C",[12],17.8%
same,"viability, T/C","second compound 1 µM, first compound 0.000316 µM",124%
same,"viability, T/C","second compound 1 µM, first compound 0.001 µM",96.4%
same,"viability, T/C",[13],105%
same,"viability, T/C",[14],100%
same,"viability, T/C",[15],42.2%
same,"viability, T/C",[16],17.6%
same,"viability, T/C","second compound 3.16 µM, first compound 0.000316 µM",120%
same,"viability, T/C","second compound 3.16 µM, first compound 0.001 µM",100%
same,"viability, T/C",[17],109%
same,"viability, T/C",[18],94.1%
same,"viability, T/C",[19],37%
same,"viability, T/C",[20],17.5%
same,"viability, T/C","second compound 10 µM, first compound 0.000316 µM",108%
same,"viability, T/C","second compound 10 µM, first compound 0.001 µM",100%
same,"viability, T/C",[21],98.2%
same,"viability, T/C",[22],91.9%
same,"viability, T/C",[23],39.8%
same,"viability, T/C",[24],23.2%
CCc1c2c(nc3ccc(O)cc13)-c1cc3c(c(=O)n1C2)COC(=O)[C@]3(O)CC + Cc1cccc(N(C)C(=O)C2C(O)CCN2c2nc(C)cc(C(F)(F)F)c2C#N)c1,pIC50,second compound 0.0316 µM,> 8.50
same,pIC50,second compound 0.1 µM,> 8.50
same,pIC50,second compound 0.316 µM,> 8.50
same,pIC50,second compound 1 µM,> 8.50
same,pIC50,second compound 3.16 µM,> 8.50
same,pIC50,second compound 10 µM,> 8.50
same,"viability, T/C",[1],34%
same,"viability, T/C",[2],20.2%
same,"viability, T/C",[3],5.31%
same,"viability, T/C",[4],2.32%
same,"viability, T/C",[25],1.63%
same,"viability, T/C",[26],1.3%
same,"viability, T/C",[5],26.2%
same,"viability, T/C",[6],15.4%
same,"viability, T/C",[7],5.43%
same,"viability, T/C",[8],2.52%
same,"viability, T/C",[27],1.76%
same,"viability, T/C",[28],2.63%
same,"viability, T/C",[9],28%
same,"viability, T/C",[10],18.8%
same,"viability, T/C",[11],4.71%
same,"viability, T/C",[12],2.82%
same,"viability, T/C",[29],1.97%
same,"viability, T/C",[30],2.54%
same,"viability, T/C",[13],30.3%
same,"viability, T/C",[14],15.7%
same,"viability, T/C",[15],5.16%
same,"viability, T/C",[16],2.53%
same,"viability, T/C",[31],1.97%
same,"viability, T/C",[32],2.5%
same,"viability, T/C",[17],36.4%
same,"viability, T/C",[18],13.5%
same,"viability, T/C",[19],4.68%
same,"viability, T/C",[20],2.35%
same,"viability, T/C",[33],2.92%
same,"viability, T/C",[34],1.89%
same,"viability, T/C",[21],28.2%
same,"viability, T/C",[22],15.4%
same,"viability, T/C",[23],5.22%
same,"viability, T/C",[24],3.2%
same,"viability, T/C",[35],3.11%
same,"viability, T/C",[36],1.34%
Nc1ccn(C2OC(CO)C(O)C2(F)F)c(=O)n1 (stereo not drawn) + Cc1cccc(N(C)C(=O)C2C(O)CCN2c2nc(C)cc(C(F)(F)F)c2C#N)c1,pIC50,second compound 0.0316 µM,> 7.50
same,pIC50,second compound 0.1 µM,> 7.50
same,pIC50,second compound 0.316 µM,> 7.50
same,pIC50,second compound 1 µM,> 7.50
same,pIC50,second compound 3.16 µM,> 7.50
same,pIC50,second compound 10 µM,> 7.50
same,"viability, T/C",[3],38.5%
same,"viability, T/C",[4],15.2%
same,"viability, T/C",[25],14.2%
same,"viability, T/C",[26],14.7%
same,"viability, T/C",[37],14.9%
same,"viability, T/C",[38],10.1%
same,"viability, T/C",[7],43.5%
same,"viability, T/C",[8],15.1%
same,"viability, T/C",[27],13.7%
same,"viability, T/C",[28],15.4%
same,"viability, T/C",[39],15.8%
same,"viability, T/C",[40],11%
same,"viability, T/C",[11],31.8%
same,"viability, T/C",[12],22%
same,"viability, T/C",[29],14.1%
same,"viability, T/C",[30],16.9%
same,"viability, T/C",[41],12.4%
same,"viability, T/C",[42],10.8%
same,"viability, T/C",[15],30.9%
same,"viability, T/C",[16],18.4%
same,"viability, T/C",[31],14.3%
same,"viability, T/C",[32],15.4%
same,"viability, T/C",[43],19.6%
same,"viability, T/C",[44],12%
same,"viability, T/C",[19],35.2%
same,"viability, T/C",[20],14.9%
same,"viability, T/C",[33],14.6%
same,"viability, T/C",[34],13.5%
same,"viability, T/C",[45],13.3%
same,"viability, T/C",[46],13%
same,"viability, T/C",[23],39.8%
same,"viability, T/C",[24],17.3%
same,"viability, T/C",[35],15.3%
same,"viability, T/C",[36],13.7%
same,"viability, T/C",[47],13.3%
same,"viability, T/C",[48],12.2%
O=C(c1cc(Cc2n[nH]c(=O)c3ccccc23)ccc1F)N1CCN(C(=O)C2CC2)CC1 + Cc1cccc(N(C)C(=O)C2C(O)CCN2c2nc(C)cc(C(F)(F)F)c2C#N)c1,pIC50,second compound 0.0316 µM,< 5.00
same,pIC50,second compound 0.1 µM,< 5.00
same,pIC50,second compound 0.316 µM,< 5.00
same,pIC50,second compound 1 µM,< 5.00
same,pIC50,second compound 3.16 µM,< 5.00
same,pIC50,second compound 10 µM,< 5.00
same,"viability, T/C",[3],108%
same,"viability, T/C",[4],95.2%
same,"viability, T/C",[25],101%
same,"viability, T/C",[26],97.2%
same,"viability, T/C",[37],96.8%
same,"viability, T/C",[38],83%
same,"viability, T/C",[7],105%
same,"viability, T/C",[8],103%
same,"viability, T/C",[27],101%
same,"viability, T/C",[28],99.3%
same,"viability, T/C",[39],95.4%
same,"viability, T/C",[40],80%
same,"viability, T/C",[11],103%
same,"viability, T/C",[12],103%
same,"viability, T/C",[29],97.5%
same,"viability, T/C",[30],94.6%
same,"viability, T/C",[41],100%
same,"viability, T/C",[42],80.2%
same,"viability, T/C",[15],115%
same,"viability, T/C",[16],93.3%
same,"viability, T/C",[31],102%
same,"viability, T/C",[32],103%
same,"viability, T/C",[43],100%
same,"viability, T/C",[44],84.7%
same,"viability, T/C",[19],110%
same,"viability, T/C",[20],95.8%
same,"viability, T/C",[33],103%
same,"viability, T/C",[34],99.6%
same,"viability, T/C",[45],98.9%
same,"viability, T/C",[46],81.6%
same,"viability, T/C",[23],99.8%
same,"viability, T/C",[24],101%
same,"viability, T/C",[35],94.1%
same,"viability, T/C",[36],96.4%
same,"viability, T/C",[47],89.4%
same,"viability, T/C",[48],80.4%
